This is an account of results in patent publication US20090099216A1, “NOVEL ADENINE COMPOUND” (priority 2005, published 2009).

This assay deals with T1, Human TLR7 (Homo sapiens, UniProt Q9NYK1).
T1 construct: expressed in transfected cells; host or cells: HEK293 (hTLR7/seap-293), stably carrying the TLR7 plasmid and the NF-kB-SEAP reporter plasmid
T1 sequence (Q9NYK1 27-1049): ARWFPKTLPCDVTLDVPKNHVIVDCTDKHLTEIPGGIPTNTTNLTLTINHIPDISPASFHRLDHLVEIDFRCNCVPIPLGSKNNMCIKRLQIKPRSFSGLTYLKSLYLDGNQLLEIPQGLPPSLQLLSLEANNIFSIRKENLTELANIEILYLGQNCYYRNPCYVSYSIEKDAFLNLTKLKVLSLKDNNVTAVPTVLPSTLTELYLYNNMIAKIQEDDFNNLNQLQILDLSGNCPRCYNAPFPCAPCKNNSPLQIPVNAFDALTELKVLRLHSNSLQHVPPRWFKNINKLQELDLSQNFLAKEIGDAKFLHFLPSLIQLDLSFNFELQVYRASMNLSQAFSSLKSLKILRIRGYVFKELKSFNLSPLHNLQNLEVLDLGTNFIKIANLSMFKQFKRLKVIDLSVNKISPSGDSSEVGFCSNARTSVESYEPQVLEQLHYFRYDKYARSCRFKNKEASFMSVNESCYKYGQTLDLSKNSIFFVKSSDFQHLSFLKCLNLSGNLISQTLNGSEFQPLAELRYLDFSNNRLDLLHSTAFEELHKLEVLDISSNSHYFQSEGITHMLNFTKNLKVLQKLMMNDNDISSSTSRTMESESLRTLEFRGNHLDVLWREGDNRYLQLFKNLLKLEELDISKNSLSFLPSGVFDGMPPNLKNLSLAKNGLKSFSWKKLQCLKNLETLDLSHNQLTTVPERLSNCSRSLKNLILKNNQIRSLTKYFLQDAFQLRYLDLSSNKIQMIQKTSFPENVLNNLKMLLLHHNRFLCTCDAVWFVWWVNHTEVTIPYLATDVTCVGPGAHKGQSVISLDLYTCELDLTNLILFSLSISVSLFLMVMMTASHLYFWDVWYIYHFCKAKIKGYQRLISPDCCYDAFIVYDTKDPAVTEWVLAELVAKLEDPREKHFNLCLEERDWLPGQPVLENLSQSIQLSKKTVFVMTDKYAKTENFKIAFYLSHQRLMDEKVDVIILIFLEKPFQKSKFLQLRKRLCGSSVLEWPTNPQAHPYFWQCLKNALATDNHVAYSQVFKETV
Description: Human TLR7 reporter assay (NF-kB-SEAP) in HEK293 cells. The assay is classed as cell-based. Conditions: hTLR7/seap-293 HEK293 cells, 20 hours incubation, absorbance 405 nm, read-out: human TLR7 binding activity (EC50). The procedure:
Human TLR7 Reporter Assay
Human TLR7 or rat TLR7 plasmid and reporter plasmid (NF-kB-SEAP) stably-induced HEK293 cells were suspended in DMEM media (10% FBS, 1% NEAA, 10 ug/mL blastocidin S HCl, 100 ug/mL Zeocin), and the suspension was seeded in 90 μl/well on 96 well plate (hTLR^7/seap-293: 20000 cells/well, rTLR7/seap-293: 25000 cells/well).
To the cells seeded on 96 well plate was added in 10 μl/well a test compound wherein DMSO stock solution (2 μl) was hundredfold diluted with medium (200 μl) (final concentration; 1 nM-10 μM, common ratio 3). The mixture was stirred tapping in the side of the plate, and then incubated for 20 hours in CO2 incubator. To the cells stimulated by a test compound was added a substrate for reporter assay (substrate for SEAP, pNPP) by 50 μl/well. 10 minutes after the addition of substrate, a quenching solution (4N NaOH) was added by 50 μl/well, and the enzymatic reaction was quenched. Top seal A was attached on the plate, and absorbance was measured by microplate reader (405 nm).
In general terms: Reporter assays use an easily measured gene product as a stand-in for the process of interest.

Structures are written as SMILES. pEC50: −log10 of the molar value.

Usually pEC50 stands for −log10 of the EC50, conventionally taken in molar units. Turning to `CCCCOc1nc(N)c2[nH]c(=O)n(CCN[C@@H](CCCCN)C(=O)OC)c2n1` [Example 7, Methyl N^2-[2-(6-amino-2-butoxy-8-oxo-7,8-dihydro-9H-purin-9-yl)ethyl]-L-lysinate], the pEC50 is 5.77.
For `CCCCOc1nc(N)c2[nH]c(=O)n(CCNCC(=O)OC)c2n1` [Example 1, Methyl N-[2-(6-amino-2-butoxy-7,8-dihydro-8-oxo-9H-purin-9-yl)-ethyl]glycinate], the pEC50 is 6.54.
Regarding `CCCCOc1nc(N)c2[nH]c(=O)n(CCN[C@@H](CC(=O)OC)C(=O)OC)c2n1` [Example 6, Dimethyl N-[2-(6-amino-2-butoxy-8-oxo-7,8-dihydro-9H-purin-9-yl)ethyl]-L-aspartate], the pEC50 was 6.06.
